# Data as given in patent EP4813992A1, “POLYARYL DERIVATIVE AND USE THEREOF” (Hangzhou HealZen Therapeutics Co., Ltd., priority 2023, dated 2025).
# Target: HPK1 kinase (Homo sapiens, UniProt Q92918)
# Experiment: Lantha screen assay, inhibitory effect on HPK1 kinase
# Type: biochemical
# Conditions: initial compound concentration 1 µM
# Experimental: The Lantha screen assay is used to evaluate the inhibitory effect of the compounds on HPK1 kinase. • a) Kinase buffer: 50 mM HEPES (pH 7.5), 10 mM MgCl2, 4 mM DTT, 0.01% Tween-20, 0.01% BSA. • b) Compound Preparation: The compound is diluted with DMSO, and the initial detection concentration of the compound is 1 µM and is diluted to the corresponding concentration. • c) Kinase response and termination: A kinase solution is prepared by adding kinase buffer, the kinase solution and the compound are added to the test plate to be incubated at room temperature for 10 minutes. Fluorescein-PKC and ATP are added to the kinase buffer to form a substrate solution, and 5 µl of the substrate solution is added to the test plate to start the reaction to be incubated at room temperature for 90 minutes; then, 10 µl of a mixture of antibody and EDTA is added to terminate the reaction to be incubated at room temperature for 60 minutes. • d) The date is read by Envision instrument to plot a curve with the Log concentration of the inhibitor as the X-axis and the inhibition rate as the Y-axis, and then the formula Y=Bottom + (Top-Bottom)/(1+(IC50/X)^HillSlope) is used to obtain IC50. Table 1 Inhibitory activity the compounds of the invention on HPK1 kinase
# Sequence of HPK1 kinase (Q92918 whole entry): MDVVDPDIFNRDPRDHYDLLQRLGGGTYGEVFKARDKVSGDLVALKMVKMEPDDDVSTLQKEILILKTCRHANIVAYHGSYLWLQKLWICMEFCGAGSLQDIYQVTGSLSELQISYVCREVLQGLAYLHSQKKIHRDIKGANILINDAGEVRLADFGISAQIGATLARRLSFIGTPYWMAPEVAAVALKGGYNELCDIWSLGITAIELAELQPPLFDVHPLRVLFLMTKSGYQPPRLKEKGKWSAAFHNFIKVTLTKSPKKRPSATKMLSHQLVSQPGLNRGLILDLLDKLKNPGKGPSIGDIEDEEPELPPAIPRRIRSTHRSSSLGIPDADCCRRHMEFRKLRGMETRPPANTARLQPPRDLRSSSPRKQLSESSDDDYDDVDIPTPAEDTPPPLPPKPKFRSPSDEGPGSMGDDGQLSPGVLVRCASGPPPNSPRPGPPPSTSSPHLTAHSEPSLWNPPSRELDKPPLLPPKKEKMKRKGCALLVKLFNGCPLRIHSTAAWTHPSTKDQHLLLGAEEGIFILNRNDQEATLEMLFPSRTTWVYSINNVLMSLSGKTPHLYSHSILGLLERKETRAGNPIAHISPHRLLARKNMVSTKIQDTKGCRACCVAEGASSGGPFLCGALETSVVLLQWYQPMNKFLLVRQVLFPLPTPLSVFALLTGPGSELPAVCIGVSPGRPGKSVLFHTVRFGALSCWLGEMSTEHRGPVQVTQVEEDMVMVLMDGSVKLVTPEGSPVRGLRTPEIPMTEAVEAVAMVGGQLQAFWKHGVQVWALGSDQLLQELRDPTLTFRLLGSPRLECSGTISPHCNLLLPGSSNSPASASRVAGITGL
row,Structure (SMILES),IC50 [nM]
1,Cc1cc(-c2cnc3[nH]cc(-c4ccc(C(=O)N(C)C)cc4)c3n2)cc(C)c1C1=CCN(C2CC3(CCN(c4ccc(C5CCC(=O)NC5=O)c(F)c4)C3)C2)CC1 (stereo not shown) [compound 045],< 10
2,COc1cc(C(=O)CCN2CC=C(c3c(C)cc(-c4cnc5[nH]cc(-c6ccc(C(=O)N(C)C)cc6)c5n4)cc3C)CC2)ccc1C1CCC(=O)NC1=O (stereo not shown) [compound 009],< 10
3,Cc1cc(-c2cnc(N)c(Oc3ccc(C(=O)N(C)C)cc3)n2)cc(C)c1C1=CCN(CC2CN(c3ccc(C(=O)NC4CCC(=O)NC4=O)cc3)C2)CC1 (stereo not shown) [compound 093],< 10
4,Cc1cc(N2CC(N3CC=C(c4c(C)cc(-c5cnc6[nH]cc(-c7ccc(C(=O)N(C)C)cc7)c6n5)cc4C)CC3)C2)ccc1N1CCC(=O)NC1=O [compound 125],< 10
5,Cc1ccc(C(=O)N2CC(CN3CC=C(c4c(C)cc(-c5cnc6[nH]cc(-c7cnc8c(c7C)NCCO8)c6n5)cc4C)CC3)C2)cc1N1CCC(=O)NC1=O [compound 069],< 10
6,Cc1cc(-c2cnc3[nH]cc(-c4ccc(C(=O)N(C)C)c(F)c4)c3n2)cc(C)c1C1=CCN(CC2CN(c3ccc(C(=O)NC4CCC(=O)NC4=O)cc3)C2)CC1 (stereo not shown) [compound 029],< 10
7,Cc1cc(N2CC(CN3CC=C(c4c(C)cc(-c5cnc6[nH]cc(-c7cnn(C8CCN(C9CC9)CC8)c7)c6c5)cc4C)CC3)C2)ccc1N1CCC(=O)NC1=O [compound 118],< 10
8,CCN1CCC(n2cc(-c3c[nH]c4ncc(-c5cc(C)c(C6=CCN(CC7CN(c8ccc(C9CCC(=O)NC9=O)cc8)C7)CC6)c(C)c5)nc34)cn2)CC1 (stereo not shown) [compound 056],< 10
9,Cc1cc(-c2cnc3[nH]cc(-c4ccc(C(=O)N(C)C)cn4)c3n2)cc(C)c1C1=CCN(CC2CN(c3ccc(C(=O)NC4CCC(=O)NC4=O)cc3)C2)CC1 (stereo not shown) [compound 031],< 10
10,Cc1cc(-c2cnc3[nH]cc(-c4ccc(C(=O)N(C)C)cc4)c3c2)cc(C)c1C1=CCN(CC2CN(c3ccc(C(=O)NC4CCC(=O)NC4=O)cc3)C2)CC1 (stereo not shown) [compound 063],< 10
11,Cc1cc(N2CC(CN3CC=C(c4c(C)cc(-c5cnc6[nH]cc(-c7cnn(C8CCOCC8)c7)c6c5)cc4C)CC3)C2)ccc1N1CCC(=O)NC1=O [compound 114],< 10
12,Cc1cc(-c2cnc3[nH]cc(-c4ccc(C(=O)N(C)C)cc4)c3n2)cc(C)c1C1=CCN(CC2CC2Nc2ccc(C(=O)NC3CCC(=O)NC3=O)cc2)CC1 (stereo not shown) [compound 036],< 10
13,Cc1cc(-c2cnc3[nH]cc(-c4ccc(C(=O)N(C)C)cc4)c3n2)cc(C)c1C1=CCN(C(=O)CCc2cc(F)c(N3CCC(=O)NC3=O)c(F)c2)CC1 [compound 047],< 10
14,Cc1cc(N2CCC(CN3CC=C(c4c(C)cc(-c5cnc6[nH]cc(-c7ccc(C(=O)N(C)C)cc7)c6n5)cc4C)CC3)C2)ccc1N1CCC(=O)NC1=O (stereo not shown) [compound 123],< 10
15,Cc1cc(-c2cnc3[nH]cc(-c4ccc(C(=O)N(C)C)cc4)c3n2)cc(C)c1C1=CCN(CC2CN(C(=O)c3ccc(Cl)c(N4CCC(=O)NC4=O)c3)C2)CC1 [compound 124],< 10
16,COc1ccc(C(=O)N2CCC(CN3CC=C(c4c(C)cc(-c5cnc6scc(-c7ccc(C(=O)N(C)C)cc7)c6n5)cc4C)CC3)C2)cc1N1CCC(=O)NC1=O (stereo not shown) [compound 082],< 10
17,Cc1cc(NCC2(CN3CC=C(c4c(C)cc(-c5cnc6[nH]cc(-c7ccc(C(=O)N(C)C)cc7)c6n5)cc4C)CC3)CC2)ccc1N1CCC(=O)NC1=O [compound 040],< 10
18,COc1cc(N2CC(CN3CC=C(c4c(C)cc(-c5cnc6scc(-c7ccc(C(=O)N(C)C)cc7)c6n5)cc4C)CC3)C2)ccc1C(=O)NC1CCC(=O)NC1=O (stereo not shown) [compound 083],< 10
19,Cc1cc(-c2cnc3[nH]cc(-c4ccc(C(=O)N5CC6(COC6)C5)cc4)c3n2)cc(C)c1C1=CCN(CC2CN(c3ccc(C(=O)NC4CCC(=O)NC4=O)cc3)C2)CC1 (stereo not shown) [compound 075],< 10
20,Cc1ccc(C(=O)N2CC(N3CC=C(c4c(C)cc(-c5cnc6[nH]cc(-c7ccc8c(c7)CCN(C)C8=O)c6n5)cc4C)CC3)C2)cc1N1CCC(=O)NC1=O [compound 072],< 10
21,COc1ccc(C(=O)N2CC(CN3CC=C(c4ncc(-c5cnc6[nH]cc(-c7ccc(C(=O)N(C)C)cc7)c6n5)cc4CN(C)C)CC3)C2)cc1N1CCC(=O)NC1=O [compound 053],< 10
22,Cc1cc(-c2cnc3[nH]cc(-c4ccc(C(=O)N(C)C)cc4)c3c2)cc(C)c1C1=CCN(CC2CCN(C(=O)c3ccc(Cl)c(N4CCC(=O)NC4=O)c3)CC2)CC1 [compound 126],< 10
23,Cc1cc(N2CC(CN3CC=C(c4c(C)cc(-c5cnc6[nH]cc(-c7ccc(-c8ncco8)cc7)c6c5)cc4C)CC3)C2)ccc1N1CCC(=O)NC1=O [compound 138],< 10

row,Structure (SMILES),IC50 [nM]
1,COc1cc(N2CC(CN3CC=C(c4c(C)cc(-c5cnc6[nH]cc(-c7ccc(C(=O)N(C)C)cc7)c6n5)cc4C)CC3)C2)ccc1N1CCC(=O)NC1=O [compound 004],< 10
2,Cc1cc(-c2cnc3[nH]cc(-c4ccc(C(=O)N(C)C)cc4)c3n2)cc(C)c1C1=CCN(CC2CN(c3ccc(C4CCC(=O)NC4=O)cc3)C2)CC1 (stereo not shown) [compound 102],< 10
3,Cc1cc(-c2cnc3[nH]cc(-c4ccc(C(=O)N(C)C)cc4)c3n2)cc(C)c1C1=CCN(CC2CN(c3ccc4c(c3)c(N3CCC(=O)NC3=O)nn4C)C2)CC1 [compound 143],< 10
4,Cc1ccc(C(=O)N2CC(CN3CC=C(c4ccc(-c5cnc6[nH]cc(-c7ccc(C(=O)N(C)C)cc7)c6n5)cc4CN(C)C)CC3)C2)cc1N1CCC(=O)NC1=O [compound 051],< 10
5,Cc1cc(N2CC(CCN3CC=C(c4c(C)cc(-c5cnc6[nH]cc(-c7ccc(C(=O)N(C)C)cc7)c6n5)cc4C)CC3)C2)ccc1N1CCC(=O)NC1=O [compound 127],< 10
6,Cc1cc(-c2cnc3[nH]cc(-c4ccc(C(=O)N(C)C)cc4)c3n2)cc(C)c1C1=CCN(CC#Cc2cccc3c2n(C)c(=O)n3C2CCC(=O)NC2=O)CC1 (stereo not shown) [compound 046],< 10
7,Cc1cc(-c2cnc3[nH]cc(-c4ccc(C(=O)N(C)C)cc4)c3n2)cc(C)c1C1=CCN(CC2CN(c3ccc(NC4CCC(=O)NC4=O)cc3)C2)CC1 (stereo not shown) [compound 043],< 10
8,Cc1cc(-c2cnc3[nH]cc(-c4ccc(C(=O)N(C)C)cc4)c3n2)cc(C)c1C1=CCN(C2CN(C(=O)c3ccc(NC4CCC(=O)NC4=O)cc3)C2)CC1 (stereo not shown) [compound 020],< 10
9,Cc1cc(C(=O)N2CC(N3CC=C(c4c(C)cc(-c5cnc6[nH]cc(-c7ccc(C(=O)N(C)C)cc7)c6n5)cc4C)CC3)C2)ccc1C1CCC(=O)NC1=O (stereo not shown) [compound 010],< 10
10,Cc1cc(N2CC(CN3CC=C(c4c(C)cc(-c5cnc6[nH]cc(-c7cnn(C8CCN(C9CCC9)CC8)c7)c6c5)cc4C)CC3)C2)ccc1N1CCC(=O)NC1=O [compound 122],< 10
11,Cc1cc(-c2cnc3[nH]cc(-c4ccc(C(=O)N(C)C)cc4)c3n2)cc(C)c1C1=CCN(CC2CN(c3ccc4c(c3)c(C3CCC(=O)NC3=O)nn4C)C2)CC1 (stereo not shown) [compound 145],< 10
12,CN(C)C(=O)c1ccc(-c2c[nH]c3ncc(-c4cnc(C5=CCN(CC6CN(c7ccc(C(=O)NC8CCC(=O)NC8=O)cn7)C6)CC5)c(F)c4)nc23)cc1 (stereo not shown) [compound 054],< 10
13,Cc1cc(-c2c[nH]c3ncc(-c4cc(C)c(C5=CCN(CC6CN(c7ccc(C(=O)NC8CCC(=O)NC8=O)cc7)C6)CC5)c(C)c4)nc23)ccc1C(=O)N1CC2(COC2)C1 (stereo not shown) [compound 050],< 10
14,Cc1cc(-c2cnc3[nH]cc(-c4ccc(C(=O)N(C)C[C@H](C)O)cc4)c3n2)cc(C)c1C1=CCN(CC2CN(c3ccc(C(=O)NC4CCC(=O)NC4=O)cc3)C2)CC1 (stereo partly shown) [compound 032],< 10
15,Cc1cc(-c2cnc3[nH]cc(-c4ccc(C(=O)N(C)C)cc4)c3n2)cc(C)c1C1=CCN(CC#Cc2ccc(C(=O)NC3CCC(=O)NC3=O)cc2)CC1 (stereo not shown) [compound 026],< 10
16,Cc1cc(-c2cnc3[nH]cc(-c4ccc(C(=O)N(C)C)cc4)c3n2)cc(C)c1C1=CCN(CC2CN(c3cccc(N4CCC(=O)NC4=O)c3C)C2)CC1 [compound 027],< 10
17,Cc1cc(N2CC(CN3CC=C(c4c(C)cc(-c5cnc(N)c(Oc6ccc(C(=O)N(C)C)cc6)n5)cc4C)CC3)C2)ccc1N1CCC(=O)NC1=O [compound 091],< 10
18,Cc1cc(-c2cnc3[nH]cc(-c4ccc(C(=O)N(C)C)cc4)c3n2)cc(C)c1C1=CCN(C2CN(Cc3ccc(F)c(N4CCC(=O)NC4=O)c3)C2)CC1 [compound 038],< 10
19,Cc1cc(-c2cnc3[nH]nc(-c4ccc(C(=O)N(C)C)cc4)c3c2)cc(C)c1C1=CCN(CC2CCN(C(=O)c3ccc(F)c(N4CCC(=O)NC4=O)c3)C2)CC1 (stereo not shown) [compound 078],< 10
20,Cc1cc(N2CC3CC(N4CC=C(c5c(C)cc(-c6cnc7[nH]cc(-c8ccc(C(=O)N(C)C)cc8)c7c6)cc5C)CC4)CC3C2)ccc1N1CCC(=O)NC1=O (stereo not shown) [compound 115],< 10
21,Cc1cc(N2CC(CN3CC=C(c4c(C)cc(-c5cnc6[nH]cc(-c7cnn(C8CCNCC8)c7)c6c5)cc4C)CC3)C2)ccc1N1CCC(=O)NC1=O [compound 134],< 10
22,Cc1cc(N2CCC3(CCC(N4CC=C(c5c(C)cc(-c6cnc7[nH]cc(-c8ccc(C(=O)N(C)C)cc8)c7n6)cc5C)CC4)C3)C2)ccc1N1CCC(=O)NC1=O (stereo not shown) [compound 017],< 10
23,Cc1cc(-c2cnc(N)c(Oc3cnn(C4CCN(C)CC4)c3)n2)cc(C)c1C1=CCN(CC2CN(c3ccc(C4CCC(=O)NC4=O)cc3)C2)CC1 (stereo not shown) [compound 096],< 10
